Patent publication US9918968B2, “Rapamycin analogs targeting proteasome function in the treatment of cancer” (THE BOARD OF REGENTS OF THE UNIVERSITY OF TEXAS SYSTEM, priority 2013, dated 2018)

How the values were obtained:
[1] = tested on: MCF7 breast carcinoma cells; experiment: Live/dead cell count, MCF7 cells; format: cell-based, human; conditions: seco-rapamycin alone, 48 hrs, 100% = total cell count in control
Experimental: Culture Collection; ATCC) were cultured according to ATCC specifications: HeLa.S3 cervical adenocarcinoma, MCF7 breast adenocarcinoma, MDA-MB-231 breast adenocarcinoma (representing triple negative breast cancer), and RPMI 8226 myeloma. The cells were grown in 24 or 12-well cell culture plates. When the cells reached about 60% confluency (surface-growing HeLa.S3,MCF7 and MDA-MB-231) or a density of about 7×10^5 (suspension-growing RPMI 8226), the inhibitors dissolved in DMSO or the solvent (DMSO) diluted in respective culture medium were added and the cells were further cultured for additional 48 hours. […] The final concentration of the solvent was 1% (vol/vol). The number of live and dead cells after the treatment was approximated with calcein AM and ethidium homodimer (LiveDead test, Invitrogen) according to manufacturer's protocol, or by a Trypan Blue exclusion assay. […] Fluorescence of calcein and DNA-bound ethidium homodimer was measured with Fluoroskan Ascent plate reader, at 485 nm (excitation)/538 nm (emission) and 530 nm/619 nm, respectively. […] Alternatively, after cell treatment the medium was removed, the surface growing cells were overlaid with Trypan Blue solution, and the colorless (live) and blue-colored (dead) cells were counted under the inverted microscope.

20S proteasome α face = tested on: T1, 20S proteasome α face; experiment: AFM imaging of open/closed conformers of 20S proteasome α face; set-up: species or system human; conditions: 10 μM compound
T1 construct: purchased Enzo LifeSciences
Experimental: AFM imaging of the 20S proteasomes were performed as previously described, in tapping (oscillating) mode in liquid (Osmulski et al., 2009 and Gaczynska and Osmulski, 2011). In short, 3 μL of proteasome preparations diluted to nanomolar concentration were deposited on a freshly cleaved muscovite mica surface. After 2 min incubation allowing electrostatic attachment of the protein particles to mica the droplet was overlaid with 30 microL of 50 mM Tris-HCl buffer (pH 7.0) and mounted in the wet chamber of a MultiMode NanoScope Ma (Bruker Corp.). Oxide-sharpened silicon nitride tips on cantilevers with a nominal spring constant 0.32 N/m (Bruker Corp.) were used to image 1 μm^2 fields in the height mode, with a scan rate of 3.05 Hz. The excitation frequency was manually tuned to 9-10 kHz, with a drive voltage of 200-500 mV and a relatively high set point (1.6 V to 1.9 V) to assure tapping with low, non-destructive force. […] As the inventors established previously, such resolution was sufficient to detect distinct conformations of the α face, covered by six scan lines. Multiple fields were scanned for each sample to collect images of hundreds of particles. Selected fields were repeatedly scanned to monitor changes in topography of the same particles for prolonged time. Inhibitors and the SucLLVY-MCA substrate were diluted in 10 μL of the imaging buffer and directly injected into the chamber. Raw images are presented, with a standard plain-fit and flattening (NanoScope software v.5.12) used as the only processing tools. For display purposes the brightness and contrast of the images was adjusted with the Nanoscope software or with Adobe Photoshop (Adobe Systems Inc.), and outlier scan lines were occasionally manually removed (Nanoscope software). Top view (“standing”, rounded) proteasomes were distinguished from the minor population of side-view (“lying”, rectangular) particles as described, by comparison of their length—to width ratios (Osmulski et al., 2009). The dimensions of particles were approximated and a shape of the α face in top-view proteasomes was judged with the help of a section tool in the Nanoscope v.5.12 or SPIP v.6.02 software (Image Metrology).
For this purpose, the inventors used the noninvasive tapping mode atomic force microscopy (AFM) in liquid, the imaging technique suitable for analysis of surface topography of macromolecules in their native state with a nanometer-scale practical resolution. The inventors established before that AFM imaging is a useful tool for studying structural dynamics of the 20S α face (Osmulski et al., 2009, Gaczynska et al., 2003; Gaczynska et al., 2011). They acquired and analyzed images of hundreds of single native, fully active 20S molecules. The majority of particles were in top-view (“standing”) position conveniently allowing for imaging of their α faces. […] Following previous extensive studies, the inventors refer to the two forms as “closed-gate” and “open-gate” proteasomes, respectively (Osmulski et al., 2009). As described before, the inventors used the shape of sections carried out in four directions through the top portion of the surface topography of the α ring to distinguish between the two forms. In short, the particle was classified as closed if all four sections were cone-shaped. In contrast, the particle was classified as open if all sections presented a dip surrounded by a rim (FIG. 5A) (Osmulski, et al., 2009). The same particles imaged in consecutive scans were able to assume either closed or open conformations, however the cone-shaped particles were always more abundant than crater-shaped, and accounted for about three-quarters of the imaged molecules (FIG. 5B). Addition of rapamycin to the imaged particles remarkably changed the partition of forms. […]

In the case of `CO[C@@H](C[C@@H]1CC[C@@H](C)[C@](O)(C(=O)C(=O)N2CCCC[C@H]2C(=O)[O-])O1)/C(C)=C/C=C/C=C/[C@@H](C)C[C@@H](C)C(=O)[C@H](OC)[C@H](O)/C(C)=C/[C@@H](C)C(=O)/C=C/[C@H](C)C[C@@H]1CC[C@@H](O)[C@H](OC)C1.[Na+]` [seco-rapamycin], the dead cells count [1] is reported as “about 60%”, the closed conformers (20S proteasome α face) is reported as roughly 40% and the open conformers (20S proteasome α face) is reported as “about 60%”.
